US12139520B2 (priority 2020, dated 2024)
Bridge positions count the residues as written; N and C are the ends. Square brackets hold non-standard residues; d marks the D form. Peptide text beside a SMILES is read from it. Hyp = O=C(O)[C@@H]1C[C@@H](O)CN1

Key:
hAM1 receptor = hAM1 receptor (Homo sapiens, UniProt O60895+Q16602); experiment: cAMP assay for in vitro receptor activation, hAM1-R; type: cell-based; conditions: cAMP assay, hAM1 receptor; read-out: hAM1R EC50
Procedure, shortened: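 cAMP accumulation was measured in a monoclonal cell line stably overexpressing the hAM1 receptor. Frozen aliquots were thawed and plated at 8000 cells/well in DPBS containing 0.05% casein and 0.5 mM IBMX.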

[1] = Physical stability of peptide analogues (Thioflavin T fibrillation); type: physicochemical; conditions: maximum ThT signal normalized between hAMY maximum and buffer background; 40° C., shaking, four days; pH 7 per table title
Procedure, shortened: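 Peptides in 50 mM sodium acetate pH 4 or 50 mM sodium phosphate pH 7 were preincubated 1 h, mixed with 4 μM ThT, held at 40° C with 700 rpm shaking before each read. Fluorescence (ex 450/em 480 nm) every 10 min for four days; LOESS-smoothed maximum signal normalized in percent between hAMY and buffer.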

hAMY3 receptor = target: T1, hAMY3 receptor (Homo sapiens, UniProt O60896+P30988); experiment: cAMP assay for in vitro receptor activation, hAMY3-R; type: cell-based; conditions: cAMP assay, hAMY3 receptor; read-out: hAMY3R EC50
T1 sequence (P30988 25-474): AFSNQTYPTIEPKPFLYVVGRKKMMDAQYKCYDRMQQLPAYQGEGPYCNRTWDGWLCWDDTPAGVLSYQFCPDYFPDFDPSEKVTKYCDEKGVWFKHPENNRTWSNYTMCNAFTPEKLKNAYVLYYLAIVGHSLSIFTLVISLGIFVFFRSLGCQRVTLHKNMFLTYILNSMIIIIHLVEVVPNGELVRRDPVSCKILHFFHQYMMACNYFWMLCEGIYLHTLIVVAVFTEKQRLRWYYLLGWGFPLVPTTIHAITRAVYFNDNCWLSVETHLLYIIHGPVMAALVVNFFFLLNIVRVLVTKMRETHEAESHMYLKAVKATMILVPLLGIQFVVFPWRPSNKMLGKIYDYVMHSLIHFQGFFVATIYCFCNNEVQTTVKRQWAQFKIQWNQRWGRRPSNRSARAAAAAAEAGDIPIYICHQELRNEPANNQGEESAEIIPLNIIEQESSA
T1 sequence (O60896 24-148 partner): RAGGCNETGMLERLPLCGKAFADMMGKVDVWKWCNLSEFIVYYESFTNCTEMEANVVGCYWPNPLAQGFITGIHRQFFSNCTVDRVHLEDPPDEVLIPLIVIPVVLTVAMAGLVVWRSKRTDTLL
Procedure, shortened: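 Monoclonal cell line stably overexpressing human AMY3 receptor, 2000 cells/well in DPBS with 0.05% casein and 0.5 mM IBMX. Stimulated 30 min at room temperature with graded compound doses, human amylin as positive control. cAMP accumulation read by TR-FRET after one hour.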

Sequence of hAM1 receptor (Q16602 23-461): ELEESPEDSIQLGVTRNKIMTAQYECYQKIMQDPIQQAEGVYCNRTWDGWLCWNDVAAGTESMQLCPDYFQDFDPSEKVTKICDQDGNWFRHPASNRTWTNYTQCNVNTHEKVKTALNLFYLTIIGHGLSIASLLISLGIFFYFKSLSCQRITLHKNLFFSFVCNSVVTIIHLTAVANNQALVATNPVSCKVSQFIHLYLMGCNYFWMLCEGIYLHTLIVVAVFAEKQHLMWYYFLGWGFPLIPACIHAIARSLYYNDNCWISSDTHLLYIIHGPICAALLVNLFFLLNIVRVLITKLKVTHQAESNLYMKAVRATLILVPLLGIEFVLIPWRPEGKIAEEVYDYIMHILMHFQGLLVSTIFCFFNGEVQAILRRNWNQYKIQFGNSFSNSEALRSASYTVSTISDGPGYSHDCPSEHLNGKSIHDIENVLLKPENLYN
Sequence of hAM1 receptor (O60895 43-175 partner): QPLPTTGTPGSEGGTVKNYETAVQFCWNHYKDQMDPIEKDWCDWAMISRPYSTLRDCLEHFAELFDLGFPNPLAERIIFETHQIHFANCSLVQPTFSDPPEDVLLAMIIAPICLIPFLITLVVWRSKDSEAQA

SMILES	EC50 (hAM1 receptor)	Max ThT signal (%) [1]	EC50 (hAMY3 receptor)
CC[C@H](C)[C@H](NC(=O)[C@H](CCC(N)=O)NC(=O)[C@H](CCC(=O)O)NC(=O)[C@H](C)NC(=O)[C@H](CC(C)C)NC(=O)[C@H](Cc1c[nH]c2ccccc12)NC(=O)[C@H](CCC(N)=O)NC(=O)[C@@H](NC(=O)[C@@H](NC(=O)[C@@H]1CSSC[C@H](NC(=O)[C@@H](N)CCCCN)C(=O)N[C@@H](CC(N)=O)C(=O)N[C@@H](C)C(=O)N[C@@H](C)C(=O)N[C@@H]([C@@H](C)O)C(=O)N1)[C@@H](C)O)C(C)C)C(=O)N[C@@H](Cc1ccc(O)cc1)C(=O)N[C@@H](CCC(N)=O)C(=O)N[C@@H](Cc1ccccc1)C(=O)N[C@H](C(=O)N[C@@H](CC(=O)O)C(=O)N[C@@H](CCCCN)C(=O)N[C@@H](CC(=O)O)C(=O)N[C@@H](CCCCN)C(=O)N[C@@H](CC(=O)O)C(=O)N[C@@H](CC(N)=O)C(=O)N[C@H](C(=O)N[C@@H](C)C(=O)N1CCC[C@H]1C(=O)N1CCC[C@H]1C(=O)N[C@H](C(=O)N[C@@H](CC(N)=O)C(=O)N[C@H](C(=O)NCC(=O)N[C@@H](CO)C(=O)N[C@@H](CC(N)=O)C(=O)NCC(=O)N1C[C@H](O)C[C@H]1C(N)=O)C(C)C)[C@@H](C)O)C(C)C)[C@@H](C)O [compound 333] (H-KCNAATCTVQWLAEQIYQFTDKDKDNVAPPTNVGSNG[Hyp]-NH2; disulfide 2-7; N-terminus assumed)	107 nM	25.700%	0.236 nM
CC[C@H](C)[C@H](NC(=O)[C@H](CCC(N)=O)NC(=O)[C@H](Cc1c[nH]cn1)NC(=O)[C@H](C)NC(=O)[C@H](CC(C)C)NC(=O)[C@H](Cc1c[nH]c2ccccc12)NC(=O)[C@H](CCC(N)=O)NC(=O)[C@@H](NC(=O)[C@@H](NC(=O)[C@@H]1CSSC[C@H](NC(=O)[C@@H](N)CCCCN)C(=O)N[C@@H](CC(N)=O)C(=O)N[C@@H]([C@@H](C)O)C(=O)N[C@@H](C)C(=O)N[C@@H]([C@@H](C)O)C(=O)N1)[C@@H](C)O)C(C)C)C(=O)N[C@@H](Cc1ccc(O)cc1)C(=O)N[C@@H](CCC(N)=O)C(=O)N[C@@H](Cc1ccccc1)C(=O)N[C@H](C(=O)N[C@@H](CC(=O)O)C(=O)N[C@@H](CCCCN)C(=O)N[C@@H](CC(=O)O)C(=O)N[C@@H](CCCCN)C(=O)N[C@@H](CC(=O)O)C(=O)N[C@@H](CC(N)=O)C(=O)N[C@H](C(=O)N[C@@H](C)C(=O)N1CCC[C@H]1C(=O)N[C@@H](CCCNC(=N)N)C(=O)N[C@H](C(=O)N[C@@H](CCC(=O)O)C(=O)N[C@H](C(=O)NCC(=O)N[C@@H](CO)C(=O)N[C@@H](CC(N)=O)C(=O)NCC(=O)N[C@@H](Cc1ccc(O)cc1)C(N)=O)C(C)C)[C@@H](C)O)C(C)C)[C@@H](C)O [compound 334] (H-KCNTATCTVQWLAHQIYQFTDKDKDNVAPRTEVGSNGY-NH2; disulfide 2-7)	> 5000 nM	10.150%	0.013 nM
CC[C@H](C)[C@H](NC(=O)[C@H](CCC(N)=O)NC(=O)[C@H](Cc1c[nH]cn1)NC(=O)[C@H](C)NC(=O)[C@H](CC(C)C)NC(=O)[C@H](Cc1c[nH]c2ccccc12)NC(=O)[C@H](CCC(N)=O)NC(=O)[C@@H](NC(=O)[C@@H](NC(=O)[C@@H]1CSSC[C@H](NC(=O)CN)C(=O)N[C@@H](CCCNC(=N)N)C(=O)N[C@@H]([C@@H](C)O)C(=O)NCC(=O)N[C@@H]([C@@H](C)O)C(=O)N1)[C@@H](C)O)C(C)C)C(=O)N[C@@H](Cc1ccc(O)cc1)C(=O)N[C@@H](CCC(N)=O)C(=O)N[C@@H](Cc1ccccc1)C(=O)N[C@H](C(=O)N[C@@H](CC(=O)O)C(=O)N[C@@H](CCCCN)C(=O)N[C@@H](CC(=O)O)C(=O)N[C@@H](CCCCN)C(=O)N[C@@H](CC(=O)O)C(=O)N[C@@H](CC(N)=O)C(=O)N[C@H](C(=O)N[C@@H](C)C(=O)N1CCC[C@H]1C(=O)N[C@@H](CCCNC(=N)N)C(=O)N[C@H](C(=O)N[C@@H](CC(N)=O)C(=O)N[C@H](C(=O)NCC(=O)N1CCC[C@H]1C(=O)N[C@@H](CCC(N)=O)C(=O)NCC(=O)N[C@@H](Cc1ccc(O)cc1)C(N)=O)C(C)C)[C@@H](C)O)C(C)C)[C@@H](C)O [compound 335] (H-GCRTGTCTVQWLAHQIYQFTDKDKDNVAPRTNVGPQGY-NH2; disulfide 2-7; N-terminus assumed)	> 5000 nM	1.600%	0.015 nM
CC[C@H](C)[C@H](NC(=O)[C@H](CCCCN)NC(=O)[C@@H](NC(=O)[C@H](CCCNC(=N)N)NC(=O)[C@@H]1CCCN1C(=O)[C@H](C)NC(=O)[C@@H](NC(=O)[C@H](CC(N)=O)NC(=O)[C@H](CC(=O)O)NC(=O)[C@H](CCCCN)NC(=O)[C@H](CC(=O)O)NC(=O)[C@H](CCCCN)NC(=O)[C@H](CC(=O)O)NC(=O)[C@@H](NC(=O)[C@H](Cc1ccccc1)NC(=O)[C@H](CCC(N)=O)NC(=O)[C@H](Cc1ccc(O)cc1)NC(=O)[C@@H](NC(=O)[C@H](CCC(N)=O)NC(=O)[C@H](Cc1c[nH]cn1)NC(=O)[C@H](C)NC(=O)[C@H](CC(C)C)NC(=O)[C@H](Cc1c[nH]c2ccccc12)NC(=O)[C@H](CCC(N)=O)NC(=O)[C@@H](NC(=O)[C@@H](NC(=O)[C@@H]1CSSC[C@H](NC(=O)CN)C(=O)N[C@@H](CCCNC(=N)N)C(=O)N[C@@H]([C@@H](C)O)C(=O)NCC(=O)N[C@@H]([C@@H](C)O)C(=O)N1)[C@@H](C)O)C(C)C)[C@@H](C)CC)[C@@H](C)O)C(C)C)[C@@H](C)O)C(=O)NCC(=O)N1CCC[C@H]1C(=O)N[C@@H](CC(N)=O)C(=O)NCC(=O)N1C[C@H](O)C[C@H]1C(N)=O [compound 339] (H-GCRTGTCTVQWLAHQIYQFTDKDKDNVAPRTKIGPNG[Hyp]-NH2; disulfide 2-7; N-terminus assumed)	> 5000 nM	20.050%	0.047 nM

The next lines start with the values.

EC50 (hAM1 receptor)	Max ThT signal (%) [1]	EC50 (hAMY3 receptor)	SMILES
> 5000 nM	20.500%	0.029 nM	CC[C@H](C)[C@H](NC(=O)[C@H](CC(N)=O)NC(=O)[C@@H](NC(=O)[C@H](CCCNC(=N)N)NC(=O)[C@@H]1CCCN1C(=O)[C@H](C)NC(=O)[C@@H](NC(=O)[C@H](CC(N)=O)NC(=O)[C@H](CC(=O)O)NC(=O)[C@H](CCCCN)NC(=O)[C@H](CC(=O)O)NC(=O)[C@H](CCCCN)NC(=O)[C@H](CC(=O)O)NC(=O)[C@@H](NC(=O)[C@H](Cc1ccccc1)NC(=O)[C@H](CCC(N)=O)NC(=O)[C@H](Cc1ccc(O)cc1)NC(=O)[C@@H](NC(=O)[C@H](CCC(N)=O)NC(=O)[C@H](Cc1c[nH]cn1)NC(=O)[C@H](C)NC(=O)[C@H](CC(C)C)NC(=O)[C@H](Cc1c[nH]c2ccccc12)NC(=O)[C@H](CCC(N)=O)NC(=O)[C@@H](NC(=O)[C@@H](NC(=O)[C@@H]1CSSC[C@H](NC(=O)CN)C(=O)N[C@@H](CCCNC(=N)N)C(=O)N[C@@H]([C@@H](C)O)C(=O)NCC(=O)N[C@@H]([C@@H](C)O)C(=O)N1)[C@@H](C)O)C(C)C)[C@@H](C)CC)[C@@H](C)O)C(C)C)[C@@H](C)O)C(=O)NCC(=O)N1CCC[C@H]1C(=O)N[C@@H](CCC(N)=O)C(=O)NCC(=O)N1C[C@H](O)C[C@H]1C(N)=O [compound 341] (H-GCRTGTCTVQWLAHQIYQFTDKDKDNVAPRTNIGPQG[Hyp]-NH2; disulfide 2-7; N-terminus assumed)
> 5000 nM	19.800%	0.054 nM	CC[C@H](C)[C@H](NC(=O)[C@H](CCC(N)=O)NC(=O)[C@H](Cc1c[nH]cn1)NC(=O)[C@H](C)NC(=O)[C@H](CC(C)C)NC(=O)[C@H](Cc1c[nH]c2ccccc12)NC(=O)[C@H](CCC(N)=O)NC(=O)[C@@H](NC(=O)[C@@H](NC(=O)[C@@H]1CSSC[C@H](NC(=O)CN)C(=O)N[C@@H](CCCNC(=N)N)C(=O)N[C@@H]([C@@H](C)O)C(=O)NCC(=O)N[C@@H]([C@@H](C)O)C(=O)N1)[C@@H](C)O)C(C)C)C(=O)N[C@@H](Cc1ccc(O)cc1)C(=O)N[C@@H](CCC(N)=O)C(=O)N[C@@H](Cc1ccccc1)C(=O)N[C@H](C(=O)N[C@@H](CC(=O)O)C(=O)N[C@@H](CCCCN)C(=O)N[C@@H](CC(=O)O)C(=O)N[C@@H](CCCCN)C(=O)N[C@@H](CC(=O)O)C(=O)N[C@@H](CC(N)=O)C(=O)N[C@H](C(=O)N[C@@H](C)C(=O)N1CCC[C@H]1C(=O)N[C@@H](CCCNC(=N)N)C(=O)N[C@@H](CO)C(=O)N[C@@H](CC(N)=O)C(=O)N[C@H](C(=O)NCC(=O)N1CCC[C@H]1C(=O)N[C@@H](CCC(N)=O)C(=O)NCC(=O)N1C[C@H](O)C[C@H]1C(N)=O)C(C)C)C(C)C)[C@@H](C)O [compound 342] (H-GCRTGTCTVQWLAHQIYQFTDKDKDNVAPRSNVGPQG[Hyp]-NH2; disulfide 2-7)
